Laboratory results published in patent US11685739B2, “High penetration drugs and their compositions thereof for treatment of Parkinson diseases” (TECHFIELDS PHARMA CO., LTD, priority 2013, dated 2023).
Like-named read-outs stand apart in the source and are kept apart here.

Key:
[1] = test system: motor function deficits induced by 6-OHDA in Parkinson's disease (PD) model; test: Rotarod test in rats with 6-OHDA lesion, Parkinson's disease (PD) model; type: in vivo, Sprague-Dawley rats; settings: for Side effects (dyskinesia at peak dose, end-of-dose deterioration of function etc.): L-DOPA orally; for Efficacy of low dose compared with moderate and high dose groups: 0.67 mg/kg transdermal (group 3) vs 2 mg and 6 mg/kg (groups 4 and 5)
[2] = human, pH 7.4
[3] = test system: motor function deficits induced by 6-OHDA in Parkinson's disease (PD) model; test: Rotarod test in rats with 6-OHDA lesion, Parkinson's disease (PD) model; type: in vivo, Sprague-Dawley rats; settings: Example 31
Method: Test subjects (Sprague-Dawley rats) were prepared, grouped, and tested following the protocol below: • 1. 200 Sprague-Dawley rats (male, 200-230 g) underwent brain stereotaxic surgery after 1 week acclamation in animal facility; • 2. After anesthesia, a bur hole (1 mm in diameter) was made on skull on the left side with a motor drill based on the coordinates: AP +0.5 mm, ML −2.8 mm, DV 6.0 mm relative to Bregma; • 3. 6-OHDA (20 μg at 5 mg/mL) or sterile saline was injected into the left striatum with a microsyringe fitted with a 26-gauge steel cannula. The chemical caused the retrograde neurodegeneration in the distal substantia nigra and impairs dopamine transmission in the nigro-striatal pathway, which eventually led to functional disturbance of motor activities; • 4. Apomorphine and classic rotation test was carried out to screen animals at the end of week 3 post 6-OHDA treatment. Animals that matched lesion type and apomorphine-induced rotational scores were allotted to 11 groups; and • 5. Rats were divided into 11 groups (n=12), each group was applied with the drug(s) at the doses specified in Table 2:
• 6. Dose Formulations • (1) L-DOPA in water (3 mg/mL) was the positive control solution for group 1 (orally for group 1, transdermally for groups 2-11). The volume of administration was 2 mL/kg. Vehicle solution (negative control solution for group 2) was 30% ethanol (v/v). The volume of administration was 1286 μL/kg. Other test solutions (groups 3-11) were freshly prepared every day. • (2) Preparation method of test solutions for groups 3-5: 50.33 mg of Drug A was dissolved in 10 mL of 30% ethanol(v/v). This solution was the stock solution[(2)a]. • a. The test solution for group 5 (high dose group) of Drug A: The stock solution [(2)a] was the test solution for Group 5. The volume of administration was 1286 μL/kg. • b. The test solution for group 4 (moderate dose group) of Drug A: 3.00 mL of the stock solution [(2)a] was diluted to final volume 9.00 mL with 30% ethanol(v/v). This solution was the test solution for Group 4. The volume of administration was 1286 μL/kg. • c. […]

[4] = Penetration rates through human skin in vitro, modified Franz cells; settings: through human skin (360-400 μm), receiving fluid pH 7.4 phosphate buffer (0.2 M)
[5] = Example 33, pro-drug transdermally

In the case of `NC(Cc1ccc(O)c(O)c1)C(=O)O` (centres unmarked) [Compound-31, 2-amino-3-(3,4-dihydroxyphenyl)propanoic acid], the “Efficacy in Rotarod test comparing to Vehicle group” value ([1]; Example 31, 6 mg/kg orally (Group 1), three-week treatment) is reported as “did not exhibit efficacy”, the “Efficacy in Rotarod test comparing to the negative control group” value ([1]; Example 33, 6 mg/kg orally, four-week treatment) is reported as “did not exhibit efficacy” and the “Side effects (dyskinesia at peak dose, end-of-dose deterioration of function etc.)” value (shortened to “Side effects”) [1, 5] is reported as “caused nausea, vomiting, gastrointestinal bleeding, dyskinesia at peak dose, and end-of-dose deterioration of function”. For the same compound, the “Efficacy in Rotarod test comparing to Vehicle group” value ([1]; Example 35, 6 mg/kg orally, four-week treatment) was “did not exhibit efficacy”, the “Side effects” value ([1]; Example 35, pro-drug of dopamine transdermally) was “caused nausea, vomiting, gastrointestinal bleeding, dyskinesia at peak dose, and end-of-dose deterioration of function” and the “Efficacy in Rotarod test comparing to Vehicle group” value ([1]; Example 36, 6 mg/kg orally, four-week treatment) was “did not exhibit efficacy”. The “Side effects” value ([1]; Example 36, pro-drug transdermally) was “caused nausea, vomiting, gastrointestinal bleeding, dyskinesia at peak dose, and end-of-dose deterioration of function”, the “The cumulative amount of test compounds” value ([2]; 1 h) was 0.001 mg and the “The cumulative amount of test compounds” value ([2]; 2 h) was 0.001 mg. The “The cumulative amount of test compounds” value ([2]; 4 h) was 0.002 mg, the “The cumulative amount of test compounds” value ([2]; 8 h) was 0.003 mg and the “Side effects” value ([3]; L-DOPA orally, pro-drug transdermally) was “caused nausea, vomiting, gastrointestinal bleeding, dyskinesia at peak dose, and end-of-dose deterioration of function”.

With `CCCN(CCC)CCOC(=O)c1cc(-c2ccc(F)cc2F)ccc1OC(C)=O.Cl` [Compound-27, 2-(dipropylamino)ethyl 4-acetoxy-2′,4′-difluoro-[1,1′-biphenyl]-3-carboxylate hydrochloride] the “Efficacy in Rotarod test comparing to vehicle group and positive control group” value ([1]; Example 36, 15 mg and 45 mg/kg transdermal, four-week treatment) was “good efficacy”, the “The cumulative amount of test compounds” value ([2]; 1 h) was 1.01 mg and the “The cumulative amount of test compounds” value ([2]; 2 h) was 2.03 mg. The “The cumulative amount of test compounds” value ([2]; 4 h) was 4.11 mg and the “The cumulative amount of test compounds” value ([2]; 8 h) was 8.25 mg.

For `Cl.NCCc1ccc(O)c(O)c1` [Compound-30, 4-(2-aminoethyl)benzene-1,2-diol hydrochloride], the “The cumulative amount of test compounds” value ([4]; 1 h) was 0.12 mg, the “The cumulative amount of test compounds” value ([4]; 2 h) was 0.25 mg and the “The cumulative amount of test compounds” value ([4]; 4 h) was 0.52 mg. For the same compound, the “The cumulative amount of test compounds” value ([4]; 8 h) was 1.05 mg.

For `C[C@@](Cc1ccc(O)c(O)c1)(NN)C(=O)O` [carbidopa], the “Effect on efficacy of L-Dopa and pro-drug of L-Dopa (Drug A) treated groups” value ([1]; Example 32, carbidopa 1.5 mg/kg orally, groups 1, 3, 4, 5, 6, 7, 9, 10, 4 weeks treatment) was “increased efficacy”, the “Effect on efficacy of vehicle group and pro-drug of aspirin (Drug B) treated groups” value ([1]; Example 32, carbidopa 1.5 mg/kg orally, groups 2, 8 and 11, 4 weeks treatment) was “did not change the efficacy” and the “Effect on efficacy of L-Dopa and pro-drug of L-Dopa treated groups” value ([1]; Example 34, carbidopa 1.5 mg/kg orally, groups 1, 3, 4, 5, 6, 7, 9, 10 (L-DOPA, Drug C), 4 weeks treatment) was “increased efficacy”. The “Effect on efficacy of vehicle group and pro-drug of ibuprofen treated groups” value ([1]; Example 34, carbidopa 1.5 mg/kg orally, groups 2, 8 and 11 (Drug D), 4 weeks treatment) was “did not change the efficacy”.

With `CCN(CC)CCOC(=O)c1ccccc1OC(C)=O.Cl` [Compound-29, 2-(diethylamino)ethyl 2-acetoxybenzoate hydrochloride] the “The cumulative amount of test compounds” value ([2]; 1 h) was 1.08 mg, the “The cumulative amount of test compounds” value ([2]; 2 h) was 2.13 mg and the “The cumulative amount of test compounds” value ([2]; 4 h) was 4.27 mg. For the same compound, the “The cumulative amount of test compounds” value ([2]; 8 h) was 8.48 mg and the “Efficacy in Rotarod test comparing to vehicle group and positive control group” value ([3]; 30 mg and 90 mg/kg transdermal, three-week treatment) was “good efficacy”.

With `CC(C)Cc1ccc(C(C)C(=O)O)cc1` (centres unmarked) [Compound-33, 2-(ρ-isobutylphenyl)propionic acid] the “The cumulative amount of test compounds” value ([4]; 1 h) was 0.001 mg, the “The cumulative amount of test compounds” value ([4]; 2 h) was 0.001 mg and the “The cumulative amount of test compounds” value ([4]; 4 h) was 0.002 mg. For the same compound, the “The cumulative amount of test compounds” value ([4]; 8 h) was 0.003 mg.

With `Br.CCC(CC)OC(=O)[C@@H](N)Cc1ccc(OC(=O)C(C)C)c(OC(=O)C(C)C)c1` [Compound-15, (S)-4-(2-amino-3-oxo-3-(pentan-3-yloxy)propyl)-1,2-phenylene bis(2-methylpropanoate) hydrobromide] the “Efficacy of low dose compared with moderate and high dose groups” value ([1]; Example 33) was “much higher than that of the moderate and high dose groups”, the “Side effects” value [1, 5] was “avoided dyskinesia at peak dose, and end-of-dose deterioration of function” and the “The cumulative amount of test compounds” value ([2]; 1 h) was 0.55 mg. The “The cumulative amount of test compounds” value ([2]; 2 h) was 1.08 mg, the “The cumulative amount of test compounds” value ([2]; 4 h) was 2.23 mg and the “The cumulative amount of test compounds” value ([2]; 8 h) was 4.41 mg.

For `CCCC(CCC)OC(=O)[C@@H](N)Cc1ccc(OC(=O)c2ccccc2)c(OC(=O)c2ccccc2)c1.Cl` [Compound-12, (S)-4-(2-amino-3-(heptan-4-yloxy)-3-oxopropyl)-1,2-phenylene dibenzoate hydrochloride], the “Efficacy of low dose compared with moderate and high dose groups” value ([1]; Example 36) was “much higher than that of the moderate and high dose groups”, the “The cumulative amount of test compounds” value ([2]; 1 h) was 0.53 mg and the “The cumulative amount of test compounds” value ([2]; 2 h) was 1.07 mg. The “The cumulative amount of test compounds” value ([2]; 4 h) was 2.13 mg and the “The cumulative amount of test compounds” value ([2]; 8 h) was 4.29 mg.

With `CC(=O)O.CCN(CC)CCOC(=O)C(C)c1ccc(CC(C)C)cc1` (centres unmarked) [Drug D, 2-(diethylamino)ethyl 2-(4-isobutylphenyl)propionate acetic acid salt] the “Efficacy in Rotarod test comparing to vehicle group and positive control group” value ([1]; Example 33, 15 mg and 45 mg/kg transdermal, four-week treatment) was “good efficacy”.

With `Cl.NCCc1ccc(OC(=O)c2ccccc2)c(OC(=O)c2ccccc2)c1` [Compound-10, 4-(2-aminoethyl)-1,2-phenylene dibenzoate hydrochloride] the “The cumulative amount of test compounds” value ([4]; 1 h) was 0.68 mg, the “The cumulative amount of test compounds” value ([4]; 2 h) was 1.35 mg and the “The cumulative amount of test compounds” value ([4]; 4 h) was 2.74 mg. For the same compound, the “The cumulative amount of test compounds” value ([4]; 8 h) was 5.55 mg.

With `CC(C(=O)OCCCCN(C)C)c1cccc(Oc2ccccc2)c1.Cl` (centres unmarked) [Drug F, 4-(dimethylamino)butyl 2-(3-phenoxyphenyl) Propionate Hydrochloride] the “Efficacy in Rotarod test comparing to vehicle group and positive control group” value ([1]; Example 35, 20 mg and 60 mg/kg transdermal, four-week treatment) was “good efficacy”.

In the case of `CCN(CC)CCOC(=O)CC1=C(C)/C(=C/c2ccc([S+](C)[O-])cc2)c2ccc(F)cc21` (centres unmarked) [Compound-24], the “The cumulative amount of test compounds” value ([2]; 1 h) is reported as 0.87 mg, the “The cumulative amount of test compounds” value ([2]; 2 h) is reported as 1.79 mg and the “The cumulative amount of test compounds” value ([2]; 4 h) is reported as 3.53 mg. The “The cumulative amount of test compounds” value ([2]; 8 h) was 7.15 mg.

For `CC(C)OC(=O)[C@H](Cc1ccc(OC(=O)c2ccccc2)c(OC(=O)c2ccccc2)c1)NC(=O)OC1CCN2CCCCC12` (stereo partly drawn) [Compound-22, 4-((2S)-3-isopropoxy-2-((((octahydroindolizin-1-yl)oxy)carbonyl)amino)-3-oxopropyl)-1,2-phenylene dibenzoate acetate], the “The cumulative amount of test compounds” value ([2]; 1 h) was 0.45 mg, the “The cumulative amount of test compounds” value ([2]; 2 h) was 0.89 mg and the “The cumulative amount of test compounds” value ([2]; 4 h) was 1.78 mg. The “The cumulative amount of test compounds” value ([2]; 8 h) was 3.61 mg.
